Source: ChEMBL document CHEMBL1150788, “In vitro susceptibility of Sporothrix schenckii to six antifungal agents determined using three different methods” (2007)
Values after ≈ are worked out from the molar mass of the structure shown.

Columns and labels:
Format in all cases: functional
Sporothrix schenckii [1] = experiment: Antifungal activity against Sporothrix schenckii P3287 isolate from cutaneous-lymphatic sporotrichosis patient after 72 hrs by ATB Fungus 2 method
Sporothrix schenckii [2] = experiment: Antifungal activity against Sporothrix schenckii P0019 isolate from cutaneous-lymphatic sporotrichosis patient after 72 hrs by modified NCCLS M38-A method
Sporothrix schenckii [3] = experiment: Antifungal activity against Sporothrix schenckii P0019 isolate from cutaneous-lymphatic sporotrichosis patient after 72 hrs by Sensititre YeastOne method
Sporothrix schenckii [4] = experiment: Antifungal activity against Sporothrix schenckii P0019 isolate from cutaneous-lymphatic sporotrichosis patient after 72 hrs by ATB Fungus 2 method
Sporothrix schenckii [5] = experiment: Antifungal activity against Sporothrix schenckii PSSA81 isolate from cutaneous-lymphatic sporotrichosis patient after 72 hrs by modified NCCLS M38-A method
Sporothrix schenckii [6] = experiment: Antifungal activity against Sporothrix schenckii PSSA81 isolate from cutaneous-lymphatic sporotrichosis patient after 72 hrs by Sensititre YeastOne method
Sporothrix schenckii [7] = experiment: Antifungal activity against Sporothrix schenckii P25013 isolate from cutaneous-lymphatic sporotrichosis patient after 72 hrs by Sensititre YeastOne method
Sporothrix schenckii [8] = experiment: Antifungal activity against Sporothrix schenckii P25013 isolate from cutaneous-lymphatic sporotrichosis patient after 72 hrs by ATB Fungus 2 method
Sporothrix schenckii [9] = experiment: Antifungal activity against Sporothrix schenckii P20825 isolate from cutaneous-lymphatic sporotrichosis patient after 72 hrs by Sensititre YeastOne method
Sporothrix schenckii [10] = experiment: Antifungal activity against Sporothrix schenckii P20825 isolate from cutaneous-lymphatic sporotrichosis patient after 72 hrs by ATB Fungus 2 method
Sporothrix schenckii [11] = experiment: Antifungal activity against Sporothrix schenckii P30019 isolate from cutaneous-lymphatic sporotrichosis patient after 72 hrs by modified NCCLS M38-A method
Sporothrix schenckii [12] = experiment: Antifungal activity against Sporothrix schenckii P30019 isolate from cutaneous-lymphatic sporotrichosis patient after 72 hrs by Sensititre YeastOne method
Sporothrix schenckii [13] = experiment: Antifungal activity against Sporothrix schenckii P30019 isolate from cutaneous-lymphatic sporotrichosis patient after 72 hrs by ATB Fungus 2 method
Sporothrix schenckii [14] = experiment: Antifungal activity against Sporothrix schenckii P14954 isolate from cutaneous-lymphatic sporotrichosis patient after 72 hrs by modified NCCLS M38-A method
Sporothrix schenckii [15] = experiment: Antifungal activity against Sporothrix schenckii P14954 isolate from cutaneous-lymphatic sporotrichosis patient after 72 hrs by ATB Fungus 2 method
Sporothrix schenckii [16] = experiment: Antifungal activity against Sporothrix schenckii MRSS4 isolate from cutaneous-lymphatic sporotrichosis patient after 72 hrs by Sensititre YeastOne method
Sporothrix schenckii [17] = experiment: Antifungal activity against Sporothrix schenckii MRSS4 isolate from cutaneous-lymphatic sporotrichosis patient after 72 hrs by ATB Fungus 2 method
Sporothrix schenckii [18] = experiment: Antifungal activity against Sporothrix schenckii P24223 isolate from cutaneous-lymphatic sporotrichosis patient after 72 hrs by modified NCCLS M38-A method
Sporothrix schenckii [19] = experiment: Antifungal activity against Sporothrix schenckii P24223 isolate from cutaneous-lymphatic sporotrichosis patient after 72 hrs by Sensititre YeastOne method
Sporothrix schenckii [20] = experiment: Antifungal activity against Sporothrix schenckii P24223 isolate from cutaneous-lymphatic sporotrichosis patient after 72 hrs by ATB Fungus 2 method
Sporothrix schenckii [21] = experiment: Antifungal activity against Sporothrix schenckii PSCC1 isolate from cutaneous-lymphatic sporotrichosis patient after 72 hrs by modified NCCLS M38-A method
Sporothrix schenckii [22] = experiment: Antifungal activity against Sporothrix schenckii PSCC1 isolate from cutaneous-lymphatic sporotrichosis patient after 72 hrs by Sensititre YeastOne method
Sporothrix schenckii [23] = experiment: Antifungal activity against Sporothrix schenckii PSCC1 isolate from cutaneous-lymphatic sporotrichosis patient after 72 hrs by ATB Fungus 2 method
Sporothrix schenckii [24] = experiment: Antifungal activity against Sporothrix schenckii P24255 isolate from cutaneous-lymphatic sporotrichosis patient after 72 hrs by Sensititre YeastOne method
Sporothrix schenckii [25] = experiment: Antifungal activity against Sporothrix schenckii P10012 isolate from cutaneous-lymphatic sporotrichosis patient after 72 hrs by Sensititre YeastOne method
Sporothrix schenckii [26] = experiment: Antifungal activity against Sporothrix schenckii P10012 isolate from cutaneous-lymphatic sporotrichosis patient after 72 hrs by ATB Fungus 2 method
Sporothrix schenckii [27] = experiment: Antifungal activity against Sporothrix schenckii P1621 isolate from cutaneous-lymphatic sporotrichosis patient after 72 hrs by modified NCCLS M38-A method
Sporothrix schenckii [28] = experiment: Antifungal activity against Sporothrix schenckii P1621 isolate from cutaneous-lymphatic sporotrichosis patient after 72 hrs by ATB Fungus 2 method
Sporothrix schenckii [29] = experiment: Antifungal activity against Sporothrix schenckii SSA29 isolate from cutaneous-lymphatic sporotrichosis patient after 72 hrs by modified NCCLS M38-A method
Sporothrix schenckii [30] = experiment: Antifungal activity against Sporothrix schenckii SSA29 isolate from cutaneous-lymphatic sporotrichosis patient after 72 hrs by Sensititre YeastOne method
Sporothrix schenckii [31] = experiment: Antifungal activity against Sporothrix schenckii P26187 isolate from cutaneous-lymphatic sporotrichosis patient after 72 hrs by modified NCCLS M38-A method
Sporothrix schenckii [32] = experiment: Antifungal activity against Sporothrix schenckii P26187 isolate from cutaneous-lymphatic sporotrichosis patient after 72 hrs by Sensititre YeastOne method
Sporothrix schenckii [33] = experiment: Antifungal activity against Sporothrix schenckii P26187 isolate from cutaneous-lymphatic sporotrichosis patient after 72 hrs by ATB Fungus 2 method
Sporothrix schenckii [34] = experiment: Antifungal activity against Sporothrix schenckii PGAC0016 isolate from cutaneous-lymphatic sporotrichosis patient after 72 hrs by Sensititre YeastOne method
Sporothrix schenckii [35] = experiment: Antifungal activity against Sporothrix schenckii PGAC0016 isolate from cutaneous-lymphatic sporotrichosis patient after 72 hrs by ATB Fungus 2 method
Sporothrix schenckii [36] = experiment: Antifungal activity against Sporothrix schenckii PJRC002 isolate from cutaneous-lymphatic sporotrichosis patient after 72 hrs by modified NCCLS M38-A method
Sporothrix schenckii [37] = experiment: Antifungal activity against Sporothrix schenckii PJRC002 isolate from cutaneous-lymphatic sporotrichosis patient after 72 hrs by ATB Fungus 2 method
Sporothrix schenckii [38] = experiment: Antifungal activity against Sporothrix schenckii P14036 isolate from cutaneous-lymphatic sporotrichosis patient after 72 hrs by Sensititre YeastOne method
Sporothrix schenckii [39] = experiment: Antifungal activity against Sporothrix schenckii P14036 isolate from cutaneous-lymphatic sporotrichosis patient after 72 hrs by ATB Fungus 2 method
Sporothrix schenckii [40] = experiment: Antifungal activity against Sporothrix schenckii P30915 isolate from cutaneous-lymphatic sporotrichosis patient after 72 hrs by Sensititre YeastOne method
Sporothrix schenckii [41] = experiment: Antifungal activity against Sporothrix schenckii P3287 isolate from cutaneous-lymphatic sporotrichosis patient after 72 hrs by Sensititre YeastOne method
Pichia kudriavzevii [42] = experiment: Antifungal activity against Candida krusei ATCC 6258 […] after 72 hrs by Sensititre YeastOne method; details: ATCC 6258, 72 h
Pichia kudriavzevii [43] = experiment: Antifungal activity against Candida krusei ATCC 6258 […] after 72 hrs by ATB Fungus 2 method; details: ATCC 6258, 72 h
Candida parapsilosis = experiment: Antifungal activity against Candida parapsilosis ATCC 22019 […] after 72 hrs by ATB Fungus 2 method; details: Lodderomyces parapsilosis, ATCC 22019, 72 h
Sporothrix schenckii [44] = experiment: Antifungal activity against Sporothrix schenckii isolate from cutaneous-lymphatic sporotrichosis patient after 72 hrs by modified NCCLS M38-A method
Sporothrix schenckii [45] = experiment: Antifungal activity against Sporothrix schenckii isolate from cutaneous-lymphatic sporotrichosis patient after 72 hrs by ATB Fungus 2 method

OC(Cn1cncn1)(Cn1cncn1)c1ccc(F)cc1F [FLUCONAZOLE]
MIC (Sporothrix schenckii [1]): > 128 µg/mL | MIC (Sporothrix schenckii [2]): > 64 µg/mL | MIC (Sporothrix schenckii [3]): > 256 µg/mL | MIC (Sporothrix schenckii [4]): > 128 µg/mL | MIC (Sporothrix schenckii [5]): > 64 µg/mL | MIC (Sporothrix schenckii [6]): 128 µg/mL (≈ 418 µM) | MIC (Sporothrix schenckii [7]): 128 µg/mL (≈ 418 µM) | MIC (Sporothrix schenckii [8]): > 128 µg/mL | MIC (Sporothrix schenckii [9]): 256 µg/mL (≈ 836 µM) | MIC (Sporothrix schenckii [10]): > 128 µg/mL | MIC (Sporothrix schenckii [11]): > 64 µg/mL | MIC (Sporothrix schenckii [12]): > 128 µg/mL | MIC (Sporothrix schenckii [13]): > 128 µg/mL | MIC (Sporothrix schenckii [14]): > 64 µg/mL | MIC (Sporothrix schenckii [15]): > 128 µg/mL | MIC (Sporothrix schenckii [16]): > 256 µg/mL | MIC (Sporothrix schenckii [17]): > 128 µg/mL | MIC (Sporothrix schenckii [18]): > 64 µg/mL | MIC (Sporothrix schenckii [19]): > 256 µg/mL | MIC (Sporothrix schenckii [20]): > 128 µg/mL | MIC (Sporothrix schenckii [21]): > 64 µg/mL | MIC (Sporothrix schenckii [22]): > 256 µg/mL | MIC (Sporothrix schenckii [23]): > 128 µg/mL | MIC (Sporothrix schenckii [24]): > 256 µg/mL | MIC (Sporothrix schenckii [25]): > 256 µg/mL | MIC (Sporothrix schenckii [26]): > 128 µg/mL | MIC (Sporothrix schenckii [27]): > 64 µg/mL | MIC (Sporothrix schenckii [28]): > 128 µg/mL | MIC (Sporothrix schenckii [29]): > 64 µg/mL | MIC (Sporothrix schenckii [30]): > 256 µg/mL | MIC (Sporothrix schenckii [31]): > 64 µg/mL | MIC (Sporothrix schenckii [32]): 128 µg/mL (≈ 418 µM) | MIC (Sporothrix schenckii [33]): > 128 µg/mL | MIC (Sporothrix schenckii [34]): > 256 µg/mL | MIC (Sporothrix schenckii [35]): > 128 µg/mL | MIC (Sporothrix schenckii [36]): > 64 µg/mL | MIC (Sporothrix schenckii [37]): > 256 µg/mL | MIC (Sporothrix schenckii [38]): > 256 µg/mL | MIC (Sporothrix schenckii [39]): > 128 µg/mL | MIC (Sporothrix schenckii [40]): > 256 µg/mL | MIC (Sporothrix schenckii [41]): > 256 µg/mL | MIC (Pichia kudriavzevii [42]): 64 µg/mL (≈ 209 µM) | MIC (Pichia kudriavzevii [43]): 32 µg/mL (≈ 104 µM) | MIC (Candida parapsilosis): 4 µg/mL (≈ 13.1 µM) | MIC50 (Sporothrix schenckii [44]): > 64 µg/mL | MIC90 (Sporothrix schenckii [44]): > 64 µg/mL | MIC50 (Sporothrix schenckii [45]): > 128 µg/mL | MIC90 (Sporothrix schenckii [45]): > 128 µg/mL
